Experiments:
[1] = biological target: T1, human recombinant DGAT1 enzyme expressed in insect cells (SF9 cells) (Homo sapiens, UniProt O75907); assay: DGAT-1 inhibition assay (IC50), SF9 microsomes; format: biochemical; conditions: SF9 insect cells expressing human DGAT-1
T1 construct: made in house; host or cells: SF9 insect cells (microsomal membrane fraction)
T1 sequence (O75907 1-488): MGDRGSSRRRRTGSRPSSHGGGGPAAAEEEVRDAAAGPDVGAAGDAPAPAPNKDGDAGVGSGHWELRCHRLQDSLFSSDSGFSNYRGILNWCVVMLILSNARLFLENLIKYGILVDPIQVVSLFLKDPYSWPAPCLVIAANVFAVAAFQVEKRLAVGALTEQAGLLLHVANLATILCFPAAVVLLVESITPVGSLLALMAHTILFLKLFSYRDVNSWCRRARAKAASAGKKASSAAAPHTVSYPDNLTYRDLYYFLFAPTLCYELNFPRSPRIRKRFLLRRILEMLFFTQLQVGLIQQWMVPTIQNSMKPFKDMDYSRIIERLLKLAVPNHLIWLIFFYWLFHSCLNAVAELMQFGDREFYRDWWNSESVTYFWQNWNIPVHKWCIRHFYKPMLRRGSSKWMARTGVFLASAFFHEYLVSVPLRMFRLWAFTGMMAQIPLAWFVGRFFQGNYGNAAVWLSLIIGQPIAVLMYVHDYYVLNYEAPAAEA
Description: The activity of DGAT-1 inhibitors in vitro was evaluated by using a human recombinant DGAT1 enzyme expressed in insect cells (SF9 cells). SF9 cells were homogenised by washing them with DPBS (Dulbecco’s phosphate-buffered saline) and then suspending cell pellets with a tris buffer (250 mM sucrose; 10 mM Tris-HCl [pH 7.4]; proteinase inhibitor). The resulting mixture was centrifugally separated at 10,000 × g for 30 min to remove the cell debris remaining in the lower layer thereof, and was centrifugally separated at 100,000 × g for 60 min to obtain a microsomal membrane. Further, membrane fractions were resuspended by the tris buffer, and then stored at -80 °C.
The activity of DGAT1 was measured according to the reported method. Specifically, 0.0001 – 10 μΜ (final concentration, FC) of the test compounds were cultured at room temperature (25 °C) for 15 min with a […] of SF9 microsomal protein solution and 100 mM of MgCl2 solution, and were then further cultured at room temperature (25 °C) for 30 min after the addition of 100 μΜ (FC in 12.5% EtOH) of 1,2-dioleyl-sn-glycerol and 30 μΜ (final conc.) of [14]C-oleyl coenzyme A. The reaction was completed by the addition of 300 μL of a mixed solution of 2-propanol/heptane (7:1), and radioactive triglyceride was separated from an organic solvent layer by using 200 μL of heptane and 200 μL of a 0.1 M carbonate buffer (pH 9.5). The amount of triglyceride was measured by liquid scintillography (Perkin Elmer, USA) after mixing with an organic solvent and an equivalent amount of scintillation solvent (MicroScint-O, Perkin Elmer, USA). The effects of inhibiting DGAT1 were calculated as percent in comparison with a control material.
The activities of synthesised compounds were evaluated using SF9 insect cells expressing human DGAT-1[22]. A potent DGAT-1 inhibitor, LCQ-908 (2 or pradigastat) was used as a positive control. […] The calculated lowest energy conformation model of 14c provided that the distance between the terminal carboxylic acid and NH of urea was over 16 Å, which may result in reduced activity. […]

[2] = biological target: T2, hDGAT1 (Homo sapiens, UniProt O75907); assay: Enzymatic assay hDGAT1; format: biochemical
T2 sequence (O75907 1-488): T1 sequence (O75907 1-488)
Source text: (§1) ACATs have sequence homology to DGAT-1 and play essential roles in cholesterol homeostasis. 17b was not explored in the enzymatic assays due to its poor pharmacokinetic profile.

[3] = biological target: T3, hDGAT2 (Homo sapiens, UniProt Q96PD7); assay: Enzymatic assay hDGAT2; format: biochemical
T3 sequence (Q96PD7 1-388): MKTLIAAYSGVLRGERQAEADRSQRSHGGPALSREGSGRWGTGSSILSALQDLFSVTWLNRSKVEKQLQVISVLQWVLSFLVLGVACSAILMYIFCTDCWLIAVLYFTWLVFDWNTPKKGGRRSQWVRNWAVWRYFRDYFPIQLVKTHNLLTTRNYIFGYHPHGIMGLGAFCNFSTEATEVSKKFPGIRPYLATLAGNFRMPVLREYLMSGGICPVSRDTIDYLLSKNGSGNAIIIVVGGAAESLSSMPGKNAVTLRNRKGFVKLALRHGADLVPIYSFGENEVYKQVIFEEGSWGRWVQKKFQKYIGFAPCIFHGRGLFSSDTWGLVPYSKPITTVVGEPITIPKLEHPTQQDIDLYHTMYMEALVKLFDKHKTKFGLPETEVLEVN
Source text: as §1

[4] = biological target: T4, hACAT1 (Homo sapiens, UniProt P35610); assay: Enzymatic assay hACAT1; format: biochemical
T4 sequence (P35610 1-550): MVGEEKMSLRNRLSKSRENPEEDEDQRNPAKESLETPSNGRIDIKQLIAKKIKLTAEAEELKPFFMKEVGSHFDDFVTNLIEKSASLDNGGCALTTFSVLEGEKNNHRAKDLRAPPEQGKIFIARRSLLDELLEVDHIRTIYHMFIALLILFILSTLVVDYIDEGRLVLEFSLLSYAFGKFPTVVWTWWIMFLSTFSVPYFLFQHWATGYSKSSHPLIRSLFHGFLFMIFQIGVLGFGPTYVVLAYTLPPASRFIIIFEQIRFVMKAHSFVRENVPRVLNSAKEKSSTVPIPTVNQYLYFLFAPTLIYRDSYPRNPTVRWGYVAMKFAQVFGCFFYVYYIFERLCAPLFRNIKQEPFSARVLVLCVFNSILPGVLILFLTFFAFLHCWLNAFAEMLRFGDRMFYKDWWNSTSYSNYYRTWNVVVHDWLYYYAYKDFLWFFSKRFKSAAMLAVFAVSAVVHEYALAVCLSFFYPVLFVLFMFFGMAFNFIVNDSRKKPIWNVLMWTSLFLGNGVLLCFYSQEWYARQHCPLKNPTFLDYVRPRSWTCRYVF
Source text: as §1

[5] = biological target: T5, hACAT2 (Homo sapiens, UniProt O75908); assay: Enzymatic assay hACAT2; format: biochemical
T5 sequence (O75908 1-522): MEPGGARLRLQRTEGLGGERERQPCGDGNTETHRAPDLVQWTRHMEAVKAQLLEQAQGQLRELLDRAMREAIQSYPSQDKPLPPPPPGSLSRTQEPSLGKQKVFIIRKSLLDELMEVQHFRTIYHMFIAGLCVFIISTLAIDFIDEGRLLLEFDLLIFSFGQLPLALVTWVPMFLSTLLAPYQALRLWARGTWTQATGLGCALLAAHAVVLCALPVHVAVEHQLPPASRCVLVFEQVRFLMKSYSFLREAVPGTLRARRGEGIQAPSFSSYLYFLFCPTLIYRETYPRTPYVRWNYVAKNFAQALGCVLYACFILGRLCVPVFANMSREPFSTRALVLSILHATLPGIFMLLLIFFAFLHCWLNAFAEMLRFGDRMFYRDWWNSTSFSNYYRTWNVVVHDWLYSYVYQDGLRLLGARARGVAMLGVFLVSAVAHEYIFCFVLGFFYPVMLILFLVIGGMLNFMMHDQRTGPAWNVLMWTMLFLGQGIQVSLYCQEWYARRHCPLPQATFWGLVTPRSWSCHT
Source text: as §1

[6] = Tissue distribution in mice; format: in vivo; conditions: ICR mice, 30 mg/kg oral, n = 3
Description: In addition, tissue distribution of 17a was investigated. 17a was orally administered to mice at 30 mg/kg, and 2 was administrated as a positive control (Figure 5). […] Significant activity of 17a in the OLTT appeared to result from high concentration in the small intestine, even though bioavailability of 17a was not great in mice.
Figure 5. Tissue distribution of 17a in mice. 17a and 2 were orally administered to ICR mice at 30 mg/kg (n = 3). (a) AUC values of 17a and 2 in indicated tissues. […] Data represent mean value. (b) Tissue-to-plasma (T/P) ratio of 17a and 2. S.I.: small intestine, L.I.: large intestine.

[7] = Pharmacokinetic profile in ICR mice; conditions: mouse, in vivo

Structure (SMILES)	IC50 [1]	IC50 [2]	IC50 [3]	IC50 [4]	IC50 [5]	Tissue distribution (concentration levels in tissues) [6]	bioavailability ([7]; oral 10 mg/kg vs iv 3 mg/kg)	Cmax ([7]; oral 10 mg/kg, n = 3)	half-life ([7]; oral 10 mg/kg, n = 3)	AUC ([7]; oral 10 mg/kg, n = 3, read-out: AUC 0∼24)
O=C(O)C[C@H]1CC[C@H](c2ccc(-c3ccc(Nc4ccc(C(F)(F)F)nc4)cn3)cc2)CC1 [Compound 2, pradigastat, reference compound]	157 nM	57 nM	> 10000 nM	> 10000 nM	> 10000 nM	much high concentrations in the liver and large intestine				
O=C([O-])C[C@H]1CC[C@H](c2csc3c(-c4ccc(NC(=O)Nc5cccc(Cl)c5)cc4)ncnc32)CC1.[Na+] [Compound 17b, Sodium trans-2–(4–(4-(4-(3–(3-chlorophenyl)ureido)phenyl)thieno[3,2-d]pyrimidin-7-yl)cyclohexyl)acetate]	89 nM						0.7%	74.8 ng/mL	5.2 h	234 ng·h/mL

Source: paper PMC6882492, “Synthesis and biological evaluation of novel thienopyrimidine derivatives as diacylglycerol acyltransferase 1 (DGAT-1) inhibitors” (Journal of Enzyme Inhibition and Medicinal Chemistry, 2019)
